Earlier results on one compound are cited in article PMC11393638 (Regulatory toxicology and pharmacology : RTP, 2023).

This series has as its system primary human hepatocytes. As to conditions: 10 μM to 100 μM; 20-h exposure; ref Robbiano et al., 1991; cited from earlier work.

Turning to `CC(C)N(CC(O)COc1cccc2ccccc12)N=O` (stereo not shown) [NNP, N-nitroso propranolol], the “DNA fragmentation and unscheduled DNA synthesis (UDS)” value is listed as “concentration-dependent increase”.
